Data set [1] concerns SARS-CoV-2. As to the kind of experiment: Antiviral efficacy against SARS-CoV-2 (strain BavPat1) in Vero E6 cells assessed by inhibition of viral RNA replication measured by RT-PCR after 2 days. Type of data set: functional, organism-based, Chlorocebus sabaeus. The following applies: Severe acute respiratory syndrome coronavirus 2, Vero C1008, 48 h.
Data set [2] in a line: Cytotoxicity (CC50) determination in Vero E6 cells measured by fluorescence (OD590nm). It is filed as toxicity, cell-based. The conditions noted are these: chlorocebus sabaeus, Vero E6 cells (Vero C1008).
Data set [3] can be described thus: Selectivity index for antiviral vs cytotoxic effect in Vero E6 cells (CC50/EC50). Type of data set: toxicity, cell-based, Vero C1008. The conditions noted are these: monkey, read-out: Selectivity index.
For data set [4], the system named is SARS-CoV-2. As to the kind of experiment: Inhibition of cell viability relative to arbidol control (inhibition index > 1 indicates higher activity) measured by fluorescence (OD590nm) in Vero E6 cells infected with SARS-CoV-2 (strain BavPat1) at MOI 0.002 after 72hrs. The conditions noted are these: Chlorocebus sabaeus; Vero C1008. Type of data set: functional.

Structures can show the parent of a compound that is named as a salt. Bounds are passed on as bounds.

As to `Clc1ccc(Cn2c(CN3CCCC3)nc3ccccc32)cc1`, in data set [1], the EC50 (as a rule, the concentration at which the effect is half-maximal) worked out at 23.9 µM and the 90% effect level (EC90) was put at 38.2 µM. For the same compound, the CC50 (usually the concentration giving 50% cytotoxicity) in data set [2] is greater than 40 µM. Besides, the selectivity ratio in data set [3] was greater than 1.7.

As for `CCN(CCO)CCCC(C)Nc1ccnc2cc(Cl)ccc12` (configuration not stated) [HYDROXYCHLOROQUINE SULFATE], the EC50 in data set [1] worked out at 4.17 µM. In addition, the CC50 in data set [2] is greater than 40 µM. In data set [3], the selectivity ratio is greater than 10.

With `COc1ccc2[nH]c([S+]([O-])Cc3ncc(C)c(OC)c3C)nc2c1` (configuration not stated) [OMEPRAZOLE], in data set [1], the response was half-maximal at 17.1 µM (EC50). Moreover, in data set [2], the CC50 is greater than 40 µM.

In the case of NEOMYCIN SULFATE, the Inhibition index in data set [4] worked out at 0.0953.

Consider `C[C@@H]1CCO[C@H]2Cn3cc(C(=O)NCc4ccc(F)cc4F)c(=O)c(O)c3C(=O)N12` [DOLUTEGRAVIR], for which, in data set [1], the EC50 worked out at 22 µM and the EC90 – broadly, the concentration needed for an effect of 90% – came to 42.8 µM. Besides, the CC50 in data set [2] is greater than 40 µM. Besides, the selectivity ratio in data set [3] is greater than 1.8.

Regarding Tyloxapol, the Inhibition index in data set [4] was 0.101.

As to `CCOC(=O)c1c(CSc2ccccc2)n(C)c2cc(Br)c(O)c(CN(C)C)c12` [UMIFENOVIR], in data set [1], the response was half-maximal at 10.7 µM (EC50). In data set [2], this compound displayed a CC50 greater than 40 µM. Also, the selectivity ratio in data set [3] is greater than 3.7.

Gramicidin displayed an Inhibition index in data set [4] of -0.249.

Consider `COc1ncnc(NS(=O)(=O)c2ccc(N)cc2)c1OC` [SULFADOXINE], for which, in data set [1], the EC50 worked out at 35.4 µM and the EC90 is 45.1 µM. In data set [2], this compound registered a CC50 greater than 40 µM. In data set [3], the selectivity ratio was greater than 1.13.

Take `CCCc1nc(C(C)(C)O)c(C(=O)OCc2oc(=O)oc2C)n1Cc1ccc(-c2ccccc2-c2nnn[nH]2)cc1` [OLMESARTAN MEDOXOMIL]: the EC50 in data set [1] was greater than 40 µM.

As to `CCCCC[C@H](O)/C=C/[C@H]1[C@H](O)CC(=O)[C@@H]1CCCCCCC(=O)O` [ALPROSTADIL], in data set [1], the EC50 was found to be 5.39 µM and the 90% effect level (EC90) was put at 62.4 µM. Moreover, the CC50 in data set [2] is greater than 40 µM. The selectivity ratio in data set [3] was greater than 7.4.

With `CC(C)CN(C[C@@H](O)[C@H](Cc1ccccc1)NC(=O)O[C@H]1CO[C@H]2OCC[C@H]21)S(=O)(=O)c1ccc(N)cc1`, in data set [1], the EC50 is greater than 40 µM.

Compound `COC(c1ccccc1)(c1ccccc1)C(Oc1nc(C)cc(C)n1)C(=O)O` (configuration not stated) came in with an EC50 in data set [1] greater than 40 µM.

As for `CC(C)(C)NC[C@H](O)c1ccc(O)c(CO)c1` [LEVALBUTEROL HYDROCHLORIDE], the EC50 in data set [1] was greater than 40 µM.

Consider `COc1ccccc1OCC(O)CN1CCN(CC(=O)Nc2c(C)cccc2C)CC1` (configuration not stated) [RANOLAZINE], for which the EC50 in data set [1] was greater than 40 µM.

Consider `OCCN1CCN(CCCN2c3ccccc3C=Cc3ccccc32)CC1` [OPIPRAMOL HYDROCHLORIDE], for which a half-maximal effect in data set [1] (EC50) was put at 5.05 µM. Also, in data set [2], the CC50 is greater than 40 µM. For the same compound, the selectivity ratio in data set [3] was greater than 7.9.

In data set [1], `C=CCOc1ccccc1OCC(O)CNC(C)C` (configuration not stated) [OXPRENOLOL HYDROCHLORIDE] gave an EC50 of 20.2 µM and an EC90 greater than 40 µM. Further, the CC50 in data set [2] was greater than 40 µM. The selectivity ratio in data set [3] was greater than 2.

The compound CYANOCOBALAMIN displayed an Inhibition index in data set [4] of 0.0637.

The compound `CC[C@H]1OC(=O)[C@H](C)[C@@H](O[C@H]2C[C@@](C)(OC)[C@@H](O)[C@H](C)O2)[C@H](C)[C@@H](O[C@@H]2O[C@H](C)C[C@H](N(C)C)[C@H]2O)[C@](C)(O)C[C@@H](C)CN(C)[C@H](C)[C@@H](O)[C@]1(C)O` [AZITHROMYCIN] showed an EC50 in data set [1] of 2.12 µM. This compound also yielded a CC50 in data set [2] greater than 40 µM. The selectivity ratio in data set [3] is greater than 19.

With `C=C[C@H]1CN2CC[C@H]1C[C@@H]2[C@@H](O)c1ccnc2ccc(OC)cc12`, in data set [1], the EC50 turned out to be 5.11 µM and the EC90 is greater than 40 µM. This compound yielded a CC50 in data set [2] greater than 40 µM. In addition, the selectivity ratio in data set [3] was greater than 7.8.

These data come from ChEMBL document CHEMBL4303097 (2020).
